{
  "source": "patent US20120156180A1",
  "about": "“COMPOSITIONS AND METHODS FOR THE TREATMENT OF KRABBE AND OTHER NEURODEGENERATIVE DISEASES” (The Board of Trustees of the University of Illinois, priority 2009, published 2012)",
  "key": {"primary cortical neurons": {"system": "primary cortical neurons", "assay": "Primary cortical neurons incubated with psychosine and control sphingolipids (neurites, MTT assay)", "conditions": "for effect on number of neurites: embryonic primary cortical neurons, psychosine 0.1, 1 and 10 μM", "protocol": "Cell cultures of cortical neurons were prepared as previously described. […] E16 pregnant females were sacrificed, the brains of the litter were collected, and the cortex was isolated. The brain was chopped, treated with 0.25% trypsin and then passed through a fire polished pipette. The cells were then plated in DMEM (Mediatech) supplemented with 10% fetal bovine serum (FBS) and, after 2 hours, the medium was changed to Neurobasal medium supplemented with B27. For cell survival, the MTT assay (Chemicon) was performed as indicated by the supplier. Briefly, 5000 cells/well were plated in a 96 well plate, and the stimuli were administered for 24 hours. At the end of the incubation time, the MTT reagent was added and, after 4 hours, the reaction was stopped and the absorbance was read at 570 nm. […] Psychosine, D-Sphingosine, and C6-Ceramide were purchased from Sigma and resuspended in ethanol to the desired concentration.\nTo test the hypothesis that the presence of psychosine was detrimental to the survival of these neurons, the effect of psychosine treatment on embryonic primary cortical neurons was tested. […] The cytotoxicity of psychosine was determined with the MTT assay, which directly measures mitochondrial activity (FIG. 20L)."}, "fast axonal transport": {"system": "fast axonal transport", "assay": "Vesicle motility assays in isolated axoplasm", "format": "biochemical, squid Loligo pealii", "conditions": "for effect on both modes of axonal transport: 1 μM and 5 μM psychosine perfused; for effect on both antero and retrograde axonal transport rates: 5 μM perfused into extruded axoplasm", "method": "Axoplasm was extruded from giant axons of the squid Loligo pealii (Wood Hole Marine Biological Laboratory) as described previously. Szebenyi et al., Neuron 40:41-52 (2003) and Morfini et al., Nat. Neurosci. 9:907-916 (2006). Sphingolipids were diluted into X/2 buffer (175 mM potassium aspartate, 65 mM taurine, 35 mM betaine, 25 mM glycine, 10 mM HEPES, 6.5 mM MgCl2, 5 mM EGTA, 1.5 mM CaCl2 and 0.5 mM glucose, pH 7.2) supplemented with 2-5 mM ATP and 20 μl was added to perfusion chambers. Preparations were analyzed on a Zeiss Axiomat with a 100×, 1.3 n.a. objective, and DIC optics. […]. Organelle velocities were measured with a Photonics Microscopy C2117 video manipulator (Hamamatsu).\nTo test whether psychosine exerts a role in neurodegeneration by affecting axonal transport, an experiment was performed using axoplasms isolated from giant squid axons, an approach used to examine the effects on antero and retrograde transport rates of a variety of molecules. Morfini et al., Neuromolecular Med. 2:89-99 (2002).\nWhether psychosine is a pathogenic effector capable of triggering axonal defects in the Twitcher mouse was assessed. To test psychosine effect on FAT, a model of vesicular transport based on the squid Loligo Pelai was employed. This approach has been extensively characterized to examine the effects of different pathogenic proteins. Morfini et al., Neuromolecular. Med. 2:89-99 (2002). Candidate molecules were perfused in a microchamber containing the axoplasm preparations and the average motility of MBO was measured over a period of time. This model has played a fundamental role in the discovery of kinesin-1S (Brady, Nature 317:73-75 (1985)) and the regulatory mechanisms of FAT (Morfini et al., Neuromolecular. Med. 2:89-99 (2002); Morfini et al., Embo J. 23:2235-2245 (2004); and Ratner et al., J. Neurosci. 18:7717-7726 (1998)) as well as the pathogenic mechanism of various proteins and neurotoxins (Morfini et al., Proc. Natl. Acad. Sci. USA 104:2442-2447 (2007); Morfini et al., Nat. Neurosci. 9:907-916 (2006); and Pigino et al., Proc. Natl. Acad. Sci. USA 106:5907-5912 (2009)). Furthermore, antero and retrograde modes of transport in squid axoplasm are identical to those of intact axons (Lasek and Brady, Nature 316:645-647 (1985)) and all regulatory mechanisms discovered in the squid axoplasm are identical to the mammalian neuron.\nPure preparations of extruded axoplasm isolated from the squid were perfused with different concentrations of psychosine (or related controls) and the speed of MBO was recorded over time."}, "Twitcher-YFPax mice": {"system": "Twitcher-YFPax mice", "assay": "Flecainide treatment of Twitcher-YFPax mice: twitching and axonopathic figures by YFP confocal microscopy", "format": "in vivo, mouse", "from_the_text": "Bechtold et al., Brain 128:18-28 (2005). […] FIG. 23.\nTo examine whether protection of axons accompanied the flecainide-mediated amelioration of twitching, spinal cord tissue was collected at P30, and longitudinal sections of the ventral white matter were observed by confocal microscopy for axonal integrity, using the YFP expression as reporter.\nSpinal cord and sciatic nerves were removed from treated and non-treated mice, providing tissue for regular confocal microscopy. Paraformaldehyde-fixed longitudinal 50-μm thick cryosections of spinal cord were used. Whole mount preparations of sciatic nerves were used for confocal analysis. Nerve samples were thoroughly Z-imaged for YEP excitation on a Zeiss Meta-confocal microscope. The number of fragmented or discontinued axons per area in samples from Twi-YFPax mice (treated and non-treated) were counted and the mean values compared to those from WT-YFPax controls. Plotting these numbers against postnatal days allowed a determination of when axonal damage starts and the extent of the effect of each neuroprotective treatment at any given time. Axonal integrity was determined by visualizing continuous YFP fluorescence along a single axon over several hundreds of microns, while visualization of axonal fragments, varicosities, and/or swellings were considered a sign of axonal damage."}, "NCX1": {"system": "NCX1", "assay": "Immunoblot of NCX1 in spinal cord extracts of flecainide-treated Twitcher mice", "format": "in vivo, mouse", "method": "Tissues were isolated and either frozen for long term storage or directly homogenized in lysis buffer (1 mM PMSF, 2 mM Sodium Orthovanadate, 1 mM NaF, 20 mM Tris HCl pH 7.4, 1% Triton X100, 150 mM NaCl, 5 mM MgCl2, 300 nM Okadaic acid). Samples were then briefly sonicated on ice and spun down at 5000 rpm for 5 min to remove the debris. The amount of protein of the supernatant was then quantified with the Bradford assay (Biorad) and equal amount of proteins were loaded on a 4-12% Bis-Tris gel (Invitrogen). After protein determination, samples were diluted to the same concentration and 10-20 μg of total protein electrophoresed on 4-12% Tris-glycine Nupage (Invitrogen) gels at 80 V in MOPS-SDS running buffer. After at 80 mV the gels were transferred for 2 hour at 120 PVDF on a PVDF membrane (Biorad). The membrane was blocked in 5% milk, 1% BSA, 0.05% Tween 20 in Tris Glycine buffer (blocking solution), then probed with primary antibodies overnight at 4° C. and with the secondary horse radish peroxidase conjugated antibodies for 1 hour at room temperature. […] The membrane was washed for at least one hour after the primary and secondary antibody incubations and developed in the Enhanced Luminescence kit (Thermo Scientific). After exposure, the bands were quantified with the software imageJ and the genes of interest were normalized to the relative loading control."}, "[1]": {"system": "EAE, spinal cord injury, and hypoxic injury", "conditions": "cited from earlier work; for prevention of axonal loss: EAE, spinal cord injury, and hypoxic injury"}, "PP1": {"system": "PP1", "assay": "PP1 enzyme activity assay in cortical neurons incubated with psychosine", "format": "cell-based, mouse", "method": "Samples were processed for quantitation of PP1 with the Molecular Probes RediPlate™ 96 EnzChek® Serine/Threonine Phosphatase Assay Kit (Molecular Probe), as described by the manufacturer. Samples were homogenized in buffer (50 mM Tris-HCl pH 7.0, containing 0.1 mM CaCl2, 125 μg/ml BSA, 0.05% Tween 20) using a IKA Ultra-Turrax T8 homogenizer. An equal amount of protein was loaded in each well of the 96-well plate and fluorescence was read at an excitation of 370 nm and an emission of 460 nm."}, "PKC": {"system": "PKC", "conditions": "cited from earlier work"}, "[2]": {"system": "psychosine-mediated neurotoxicity", "assay": "Psychosine-mediated neurotoxicity with GSK3β inhibitor L803", "conditions": "no experimental details given"}, "[3]": {"conditions": "calcium-sensitive dye, Invitrogen; cited from earlier work"}, "[4]": {"conditions": "perfusion with control D-Sphingosine"}},
  "note": "“Also recorded” adds a separate entry of the source. Square brackets hold non-standard residues; d marks the D form. Ends that are not written are not given here. pS = N[C@@H](COP(=O)(O)O)C(=O)O",
  "data": [
    {"compound": "CCCCCCCCCCCCC/C=C/[C@@H](O)[C@H](CO)NC(=O)CCCCC", "note": "[C6 ceramide, C6-Ceramide]", "values": [
      {"measurement": "effect on number of neurites", "setting": "primary cortical neurons", "result": "comparable"}
    ]},
    {"compound": "CCCCCCCCCCCCC/C=C/[C@@H](O)[C@@H](N)CO", "note": "[D-Sphingosine]", "values": [
      {"measurement": "effect on number of neurites", "setting": "primary cortical neurons", "result": "did not exert any effect"},
      {"measurement": "effect on speed of anterograde or retrograde transport", "setting": "fast axonal transport; control lipid perfused", "result": "did not affect the speed of anterograde or retrograde transport"},
      {"measurement": "transport rate, anterograde FAT", "setting": "fast axonal transport; [4]", "result": "1.5-2 mm/sec"},
      {"measurement": "transport rate, retrograde transport", "setting": "fast axonal transport; [4]", "result": "1-1.4 mm/sec"}
    ]},
    {"compound": "C[S+]([O-])c1ccc(-c2nc(-c3ccncc3)c(-c3ccc(F)cc3)[nH]2)cc1", "note": "(centres unmarked) [SB203580]", "values": [
      {"measurement": "prevention of GM1-mediated inhibition of anterograde fast axonal transport", "setting": "fast axonal transport", "result": "prevented GM1-mediated inhibition of anterograde fast axonal transport"},
      {"measurement": "prevention of sphingomyelin inhibition of anterograde fast axonal transport", "setting": "fast axonal transport", "result": "prevented"}
    ]},
    {"compound": "O=C(NCC1CCCCN1)c1cc(OCC(F)(F)F)ccc1OCC(F)(F)F", "note": "(centres unmarked) [flecainide]", "values": [
      {"measurement": "onset of twitching (percentage of mice twitching)", "setting": "Twitcher-YFPax mice; 30 mg/kg body weight/day from P5 or P9 until P30, at 15, 20, 25 and 30 days of age", "result": "delayed onset of twitching"},
      {"measurement": "protection of axons in the spinal cord", "setting": "Twitcher-YFPax mice; daily subcutaneous 30 mg/kg/day starting from P2", "result": "significantly protected axons in the spinal cord; also recorded: even stronger protective effect"},
      {"measurement": "reduction of number of structural pathologies (axonopathic figures per area) to motor axons", "setting": "Twitcher-YFPax mice; early treatment from P5, 30 mg/kg/day, spinal cord at P30", "result": "about 50%"},
      {"measurement": "frequency of axonopathic figures in the ventral spinal cord", "setting": "Twitcher-YFPax mice; late treatment from P9, 30 mg/kg/day, spinal cord at P30", "result": "not significantly different from that in vehicle-treated animals"},
      {"measurement": "NCX1 expression in spinal cord", "setting": "NCX1; early flecainide treatment (P5)", "result": "reduced NCX1 expression at early (P20) and late (P30) ages; also recorded: reduced the expression of NCX1"},
      {"measurement": "NCX1 expression in spinal cord", "setting": "NCX1; late flecainide treatment (P9)", "result": "Reduction of NXC1 was not detected; also recorded: no differences in NCX1 expression"},
      {"measurement": "reduction of axonal degeneration", "setting": "[1]; 30 mg/kg/day, models of demyelinating EAE", "result": "sufficient to reduce axonal degeneration"},
      {"measurement": "prevention of axonal loss", "setting": "[1]", "result": "successfully prevented major axonal loss"},
      {"measurement": "sodium channel firing, sodium influx and axon protection", "setting": "[1]; models of acute and chronic demyelination", "result": "successful in reducing excessive firing of sodium channels, decreasing sodium influx, and protecting axons"}
    ]},
    {"compound": "C=C1[C@@H](O)[C@@H]2O[C@]3(CC[C@H](/C=C/[C@@H](C)[C@@H]4CC(C)=C[C@@]5(O[C@H](C[C@@](C)(O)C(=O)O)CC[C@H]5O)O4)O3)CC[C@H]2O[C@@H]1[C@@H](O)C[C@H](C)[C@H]1O[C@@]2(CCCCO2)CC[C@H]1C", "note": "[okadaic acid]", "values": [
      {"measurement": "prevention of psychosine-induced inhibition of fast axonal transport", "setting": "fast axonal transport; 200 nM okadaic acid co-perfused with 5 μM psychosine", "result": "prevented much of the blockage of axonal transport; also recorded: prevented FAT inhibition induced by psychosine"}
    ]},
    {"compound": "O=C1NC(=O)C(c2ccccc2)(c2ccccc2)N1", "note": "[phenytoin]", "values": [
      {"measurement": "prevention of axonal loss", "setting": "[1]", "result": "successfully prevented major axonal loss"}
    ]},
    {"compound": "CCCCCCCCCCCCC/C=C/[C@@H](O)[C@@H](N)CO[C@@H]1O[C@H](CO)[C@H](O)[C@H](O)[C@H]1O", "note": "[psychosine, galactosylsphingosine]", "values": [
      {"measurement": "PP1 activity", "setting": "PP1; acutely purified embryonic cortical neurons incubated with psychosine", "result": "PP1 activity was induced; also recorded: dose-dependent increase in PP1 activity"},
      {"measurement": "PP1 activity", "setting": "PP1; cortical neurons, incubation with psychosine for 1 hour", "result": "PP1 activity increased"},
      {"measurement": "effect on number of neurites", "setting": "primary cortical neurons", "result": "decrease in the number of neurites"},
      {"measurement": "cytotoxicity, MTT assay", "setting": "primary cortical neurons; primary cortical neurons, 1 μM, 24 hours", "result": "toxic even at low concentrations"},
      {"measurement": "inhibition of kinases", "setting": "PKC", "result": "known to inhibit kinases such as PKC"},
      {"measurement": "effect on both modes of axonal transport", "setting": "fast axonal transport", "result": "strong inhibition of both modes of axonal transport"},
      {"measurement": "effect on both modes of axonal transport", "setting": "fast axonal transport; listed as Psychosine", "result": "strongly inhibited both modes of FAT"},
      {"measurement": "effect on both antero and retrograde axonal transport rates", "setting": "fast axonal transport", "result": "rapid reduction of both antero and retrograde axonal transport rates; also recorded: strong inhibitory effect on both antero and retrograde transport"}
    ]},
    {"compound": "KEAPPAPPQ[pS]P [L803]", "values": [
      {"measurement": "effect on psychosine-mediated neurotoxicity", "setting": "[2]", "result": "decreased psychosine-mediated neurotoxicity"}
    ]},
    {"compound": "Sulfatides", "values": [
      {"measurement": "effect on both antero and retrograde axonal transport rates", "setting": "fast axonal transport", "result": "inhibited both anterograde and retrograde modes of fast axonal transport"}
    ]},
    {"compound": "chondroitin sulfate", "values": [
      {"measurement": "effect on both antero and retrograde axonal transport rates", "setting": "fast axonal transport", "result": "no detectable effect"}
    ]},
    {"compound": "fluo-4", "values": [
      {"measurement": "Kd", "setting": "[3]", "result": 345, "unit": "nM"}
    ]},
    {"compound": "sphingomyelin", "values": [
      {"measurement": "effect on anterograde mode of fast axonal transport", "setting": "fast axonal transport; 5 μM perfused", "result": "inhibited the anterograde mode of fast axonal transport only"},
      {"measurement": "effect on retrograde mode of fast axonal transport", "setting": "fast axonal transport; 5 μM perfused", "result": "did not show any effect on the retrograde mode of transport"}
    ]}
  ]
}
